{
  "source": "patent US20240382564A1",
  "about": "“Methods and Compositions for Treating Muscular Dystrophy and Memory Impairment” (Allysta Pharmaceuticals, Inc., priority 2023, published 2024)",
  "format_in_all_cases": "in vivo, mouse",
  "key": {"D2.mdx mice [1]": {"test_system": "D2.mdx mice", "test": "Functional assays (grip strength, cage hang time, voluntary wheel running) and serum creatine kinase", "description": "D2.mdx mice were treated with ALY688 at two different dosages; high dose (HD; 15 mg/kg body weight/day) or low dose (LD; 3 mg/kg body weight/day) dissolved in saline. A separate group of mice were treated with saline alone (VEH, vehicle). Treatment was provided via subscapular subcutaneous injections from 7 days of age to 28-30 days. […] At 28-30 days of age, mice were anaesthetized with isoflurane vaporized in medical air (21% oxygen) at a 2 L/min flow rate. Due to tissue limitations in limb muscle, certain measures were performed separately in tibialis anterior and quadriceps across several phases of breeding. Following the treatment protocol, in situ quadriceps force assessments were then performed in one limb followed by removal of the quadriceps from the other limb for mitochondrial assessments, diaphragm for in vitro force assessments and finally other tissues for further processing as described below. Muscle and visceral organs weights were normalized to tibia length. Tissue collected from the first phase were utilized in force, histological, mitochondrial measures (respiration, mH2O2 and calcium retention capacity) and western analyses (diaphragm and quadriceps only). A second phase was then collected and utilized for cytokine profiling, qPCR analyses and additional westerns (TA only). Serum was collected from both phase 1 and 2 and utilized for serum CK analysis. All animals were utilized in in vivo functional assays (grip strength, cage hang time and voluntary wheel running).\nVoluntary wheel running, cage hang time and forelimb grip strength were assessed two days before sacrifice. Serum derived from cardiac puncture at the time of sacrifice were assessed spectrofluorometrically for creatine kinase activity (U/L)."}, "D2.mdx mice [2]": {"test_system": "D2.mdx mice", "test": "Hippocampal western blotting", "details": "hippocampus", "description": "Male D2.mdx mice originated from a colony maintained at York University (Toronto, Canada) and sourced from Jackson Laboratories (Stock Number 013141, Bar Harbor, United States). Mice were treated daily from days 7 to 28 of age with ALY688 at 15 mg/kg b.w. (D2.mdx-ALY688) or saline control (D2.mdx-VEH). This age was chosen given it captures an early stage of disease progression in cardiac and skeletal muscle. Mice were sacrificed 20-24 hr after the last dose. Breeding of wildtype mice was unsuccessful. Instead, three-week-old wildtype DBA/2J WT mice (D2A) were obtained from Jackson Laboratories (Stock number 000671, Bar Harbor, United States) and allowed to acclimatize for one week before sacrifice. Mice were housed in standard 12:12-hr light:dark cycles and were allowed access to standard rodent chow and water ad libitum. 4 days prior to sacrifice, all groups underwent novel object recognition acclimatization and testing as described below. Mice were anesthetized under 5% isoflurane vaporized in medical air (21% oxygen) at a flow rate of 2 L/min and then maintained at 2-3% prior to euthanasia by exsanguination. Muscles were removed and used for another investigation (under review at the time of this submission). The right and left hippocampus were then quickly dissected from the brain with a portion placed immediately into ice-cold BIOPS, containing (in mM): 50 MES Hydrate, 7.23 K2EGTA, 2.77 CaK2EGTA, 20 imidazole, 0.5 dithiothreitol, 20 taurine, 5.77 ATP, 15 PCr, and 6.56 MgCl2·6H2O (pH 7.1) or flash-frozen in liquid nitrogen and stored at −80° C. for RNA isolation and western blotting. All experiments and procedures were approved by the Animal Care Committee at York University (AUP Approval Number 2016-18) in accordance with the Canadian Council on Animal Care.\nHippocampus tissue (collected from the same mice utilized in high-resolution respirometry experiments) was homogenized in cold lysis buffer containing (in mM; 20 Tris/HCl, 150 NaCl, 1 EDTA, 1 EGTA, 1% Triton X-100, 2.5 Na4O7P2, 1 Na3VO4, pH 7.0) supplemented with protease and phosphatase inhibitors (Sigma) according to the protocol established in Hughes MC et al. “Early myopathy in Duchenne muscular dystrophy is associated with elevated mitochondrial H2O2 emission during impaired oxidative phosphorylation.” Journal of Cachexia, Sarcopenia and Muscle. 2019; 10:643-61. […] For detection of total AMPK, p-AMPK, p-ULK1, p62, and LC3BII/I, proteins were transferred to a 0.2 μm low fluorescence polyvinylidene difluoride membrane using a Bio-Rad Trans Blot Turbo. […] The same washing protocol was repeated and then membranes were detected using infrared imaging (LI-COR CLx; LI-COR, Lincoln, NE, USA) and quantified by densitometry (ImageJ, http://imagej.nih.gov/ij/). […]"}, "D2.mdx mice [3]": {"test_system": "D2.mdx mice", "test": "In-situ quadriceps force", "description": "D2.mdx mice were treated with ALY688 at two different dosages; high dose (HD; 15 mg/kg body weight/day) or low dose (LD; 3 mg/kg body weight/day) dissolved in saline. A separate group of mice were treated with saline alone (VEH, vehicle). Treatment was provided via subscapular subcutaneous injections from 7 days of age to 28-30 days. […] At 28-30 days of age, mice were anaesthetized with isoflurane vaporized in medical air (21% oxygen) at a 2 L/min flow rate. Due to tissue limitations in limb muscle, certain measures were performed separately in tibialis anterior and quadriceps across several phases of breeding. […]\nBody temperature was maintained using an overhead heat lamp. […] Optimal resting length (L0) was determined using single twitches (pulse width=0.2 ms) at varying muscle lengths at the maximal stimulation current. Force was assessed across increasing frequencies (1, 40, 60, 80, 100, 120 Hz) using a biphasic stimulator (Model 710B, Aurora Scientific, Inc., ON, Canada), with one minute rest between each frequency. […] Recovery from fatigue was assessed 5, 10 and 15 minutes after the last contraction of the fatigue protocol at the frequency that elicited max force. Data were analyzed using Dynamic Muscle Control Data Acquisition software (Aurora Scientific, Inc) and normalized to quadriceps weight in mg."}},
  "note": "Where no end group is shown, it is not given here. [ ]: non-standard residue; d: D form. Nva = CCC[C@H](N)C(=O)O",
  "data": [
    {"substance": "[dN]IP[Nva]LY[dS]FA[dS]-NH2 [ALY688]", "values": [
      {"measurement": "serum creatine kinase", "setting": "D2.mdx mice [1]; D2.mdx groups", "result": "3.1-to-5.2 fold increase vs WT"},
      {"measurement": "grip strength, cage hang time and voluntary wheel running, comparison between D2.mdx groups", "setting": "D2.mdx mice [1]; VEH, LD, HD", "result": "similar"},
      {"measurement": "grip strength, cage hang time and voluntary wheel running", "setting": "D2.mdx mice [1]; all D2.mdx groups", "result": "−15.1% to −91.0"},
      {"measurement": "serum creatine kinase", "setting": "D2.mdx mice [1]; low dose vs other D2.mdx groups", "result": "increases seen with the low dose"},
      {"measurement": "degree of AMPK activation (p-AMPK or p-AMPK/AMPK)", "setting": "D2.mdx mice [2]", "result": "not altered"},
      {"measurement": "total AMPK protein", "setting": "D2.mdx mice [2]", "result": "lower"},
      {"measurement": "protein content of total raptor", "setting": "D2.mdx mice [2]; increased in D2.mdx vs WT", "result": "completely prevented the increases"},
      {"measurement": "protein content of total tau", "setting": "D2.mdx mice [2]; increased in D2.mdx vs WT", "result": "completely prevented the increases"},
      {"measurement": "muscle force production", "setting": "D2.mdx mice [3]; both doses", "result": "no effect"},
      {"measurement": "recovery from fatigue, change", "setting": "D2.mdx mice [3]; low dose, printed range also covers diaphragm high dose", "result": "−5.3% to −50.9"}
    ]}
  ]
}
